Laboratory results: paper PMC3871595, “Structure Based Identification and Characterization of Flavonoids That Disrupt Human Papillomavirus-16 E6 Function” (PLoS ONE, 2013)

Legend:
RPE-1 cells = assay: cell viability (MTS, Celltiter 96 AQueous) RPE-1; format: cell-based, human; settings: RPE-1 (HPV negative), 48 to 96 hours, relative to DMSO
primary HFKs = assay: cell viability (MTS, Celltiter 96 AQueous) primary HFKs; format: cell-based, human; settings: 48 hours, relative to DMSO
C33a cells = assay: cell viability (MTS, Celltiter 96 AQueous) C33a; format: cell-based, human; settings: C33a (HPV negative), 48 to 96 hours, relative to DMSO
Procedure: HPV-18 positive HeLa cells and two additional control cell lines, C33a, a cell line derived from an HPV-negative human cervical cancer isolate, and HaCat, a spontaneously immortalized human keratinocyte cell line, were used to assess compounds for their impact on cell growth and viability. All cells were incubated for 48 to 96 hours with increasing doses of compound. Cell viability was measured by MTS based assay and % viability quantified relative to cells treated with DMSO.
For cell viability, 12,000 cells per cm^2 were plated in 96-well dishes 24 hours prior to drug addition. Fresh media and compound were added. Plates were read after 72-96 hours. Relative cell viability was assayed as directed in the Celltiter 96 AQueous one solution assay (Promega). For caspase activity, plates were assayed after 4, 8, 12, 24, or 48 hours as described for the Caspase-Glo 3/7 assay (Promega).

[1] = biological target: T1, interaction between GST-E6 and three PDZ domains of hDlg fused to BAP (hDlg-BAP) (Human papillomavirus type 16, UniProt P03126); assay: E6/hDlg-BAP specificity filter binding assay; parameters: species or system HPV-16
T1 construct: made in house; host or cells: E. coli BL21
Procedure: This interaction between E6 and hDlg occurs at the C-terminus of E6 and is independent of the interaction between E6 and the charged leucine helix in E6AP [21, 22].
Pre-Block - 96-well filter plates were prepared (0.2 µm BioTrace NT, Pall). 100µL of blocking buffer (100 mM Tris pH 8.0, 100 mM NaCl, 0.1% milk) was added per well. Plates were blocked for 1 hr at RT on an orbital shaker. Buffer was removed by vacuum filtration using a vacuum manifold. GST-E6 Bead addition – GST-E6 beads were prepared at 5µg/mL in GST-E6 bead buffer (100 mM Tris pH 8.0, 100 mM NaCl, 0.1% milk, 2.5 mM DTT). 100µL of GST-E6 bead mix was added per well and incubated for 1 hr at 4°C. Buffer was removed by vacuum filtration. […] 48 µL of each reagent was added per well. For drug assay, 2µL of compound was added to each well and mixed thoroughly. […] Plates were incubated for 1-3 hours at RT on an orbital shaker. Buffer was removed by vacuum filtration. Plates were washed on the vacuum manifold, first with 200 µL buffer (100 mM Tris pH 8.0, 100 mM NaCl, 1 mM DTT), and twice more with 100µL lysis buffer without DTT. […] 60 µL of Immunostar-AP assay reagent was added, the BAP activity was allowed to develop for 10 minutes and the plates were read on a Wallace Luminometer. BAP activity was measured as relative light units (RLU) on a luminometer using the Immunostar-AP substrate (BioRad).

[2] = biological target: GBF-E6 binding to E6apc2 peptide (Human papillomavirus type 16, UniProt P03126); assay: SPR competition, immobilized E6apc2 peptide, GBF-E6 analyte; parameters: species or system HPV-16; settings: 1.6-12.5 µM
Procedure: The E6apc2 peptide was derived from the third zinc finger of the Sp1 protein and incorporates 10 amino acids from the charged helical domain of E6AP ([…]) at its C-terminus. […] In this experiment, E6apc2 was immobilized while E6apc1 control (E6-non-binder) was immobilized in a reference cell.
(§1) SPR analysis was performed on a Biacore 3000 instrument. Immobilized GBFE6 [43] was diluted to 30μg/mL in 10 mM sodium acetate, pH 4.0 and 5.0 and immobilized onto the dextran matrix of a CM5 sensor chip (Biacore) using the amine coupling method. All binding experiments were performed at 25 °C in 50 mM phosphate (pH 6.5) containing 200 mM NaCl. Pulses of 10 mM glycine (pH 3.0) were used to regenerate the surfaces between injections. […] SPR data were analyzed using BIAevaluation 4.1 software (Biacore).

[3] = biological target: E6 fused to a GB1-fusion tag (GBF) (Human papillomavirus type 16, UniProt P03126); assay: surface plasmon resonance direct binding, immobilized GBF-E6; parameters: species or system HPV-16; settings: 1.6-12.5 µM
Procedure: A reference cell with immobilized GBF was performed simultaneously for background subtraction. […] While direct binding was observed, the data could not be properly fit to determine binding affinity.
as §1

T1 sequence (P03126 whole entry, the tested form may be a part): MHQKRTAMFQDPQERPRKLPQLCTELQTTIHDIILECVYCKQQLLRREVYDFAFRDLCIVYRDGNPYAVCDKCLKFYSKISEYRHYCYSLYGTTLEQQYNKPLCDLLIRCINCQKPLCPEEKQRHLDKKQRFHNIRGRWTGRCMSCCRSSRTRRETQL
Chain of GBF-E6 binding to E6apc2 peptide (P03126 whole entry, the tested form may be a part): as above
Chain of E6 fused to a GB1-fusion tag (GBF) (P03126 whole entry, the tested form may be a part): as above

| SMILES | cell growth and viability (RPE-1 cells) | cell growth and viability (primary HFKs) | cell growth and viability (C33a cells) | specificity against hDlg control binding reaction [1] | competition with E6apc2 peptide for binding to GBF-E6 [2] | direct binding to E6 (SPR response) [3] |
| --- | --- | --- | --- | --- | --- | --- |
| COc1cccc(-c2cc(=O)c3cc(-c4nnn[nH]4)ccc3o2)c1 [CAF-24] | little effect on the viability | to a lesser extent, inhibit growth of the primary HFKs | little effect on the viability | increased specificity against the FLAG and hDlg control binding reactions |  |  |
| O=c1cc(-c2ccc(O)c(O)c2)oc2cc(O)cc(O)c12 [luteolin, reference compound] |  |  |  |  | directly competed with the peptide for binding to GBF-E6 | directly binds to E6 protein |
